Test results: ChEMBL document CHEMBL5370649, “Novel Coumarin Derivatives Inhibit the Quorum Sensing System and Iron Homeostasis as Antibacterial Synergists against Pseudomonas aeruginosa” (J Med Chem, 2023)
Calls of active or inactive are those of the source. The rule behind the calls is not given here.

Experiments:
Pseudomonas aeruginosa [1] = assay: Antibacterial activity against Pseudomonas aeruginosa PAO1 in ABTGC medium assessed as bacterial growth inhibition incubated for 16 hrs; type: functional
Pseudomonas aeruginosa [2] = assay: Antibiofilm activity against Pseudomonas aeruginosa PAO1 assessed as inhibition of biofilm formation at 0.5 to 10 uM incubated for 24 hrs by SYTO9 and PI staining based 3D fluorescence confocal microscopy imaging analysis; type: functional, organism-based; conditions: dose 0.5-10 µM
[3] = target: T1, HTH-type quorum-sensing regulator RhlR (Pseudomonas aeruginosa (strain ATCC 15692 / PAO1 / 1C / PRS 101 / LMG12228)) (UniProt P54292); assay: Inhibition of RhlR-mediated quorum sensing system in Pseudomonas aeruginosa PAO1 assessed as inhibition of pyocyanin production at 1.25 to 20 uM incubated for 24 hrs by absorbance based assay; conditions: dose 1.25-20 µM
T1 sequence (whole entry): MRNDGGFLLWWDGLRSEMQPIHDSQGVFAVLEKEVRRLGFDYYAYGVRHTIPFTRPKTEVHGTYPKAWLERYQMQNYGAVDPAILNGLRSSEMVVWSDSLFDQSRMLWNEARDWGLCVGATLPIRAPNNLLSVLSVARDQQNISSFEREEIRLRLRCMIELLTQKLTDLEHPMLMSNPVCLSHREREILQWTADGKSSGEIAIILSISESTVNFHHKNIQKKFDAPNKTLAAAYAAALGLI

[4] = Inhibition of quorum sensing system in Pseudomonas aeruginosa PAO1-gfp assessed as inhibition of GFP fluorescence expression at 1.25 to 20 uM and measured for 12 hrs at 15 mins interval by fluorescence assay; conditions: dose 1.25-20 µM
[5] = Inhibition of quorum sensing system in Pseudomonas aeruginosa PAO1-lasB-gfp assessed as inhibition of GFP fluorescence expression at 1.25 to 20 uM and measured for 12 hrs at 15 mins interval by fluorescence assay; conditions: dose 1.25-20 µM
[6] = Inhibition of quorum sensing system in Pseudomonas aeruginosa PAO1-rhlA-gfp assessed as inhibition of GFP fluorescence expression at 1.25 to 20 uM and measured for 12 hrs at 15 mins interval by fluorescence assay; conditions: dose 1.25-20 µM
[7] = Metal chelating activity assessed as Fe3+-compound complex formation assessed as pFe(III) value by fluorescence method
Pseudomonas aeruginosa [8] = assay: Inhibition of iron homeostasis in Pseudomonas aeruginosa PAO1 in ABTGC medium assessed as increase in iron-free pyochelin production at 1.25 to 20 uM in presence of FeCl3 by fluorescence based microplate reader analysis; type: functional, organism-based; conditions: dose 1.25-20 µM
Pseudomonas aeruginosa [9] = assay: Antibiofilm activity against Pseudomonas aeruginosa PAO1 fpvA-overexpressing mutant assessed as inhibition of biofilm formation at 1.25 to 20 uM incubated for 24 hrs by crystal violet staining based absorbance assay; type: functional, organism-based; conditions: dose 1.25-20 µM
Pseudomonas aeruginosa [10] = assay: Inhibition of iron homeostasis in Pseudomonas aeruginosa PAO1 in ABTGC medium assessed as decrease in iron level at 1.25 to 20 uM in presence of FeCl3 by fluorescence based microplate reader analysis (Rvb= 9.6+/-2.00 microM); type: functional; conditions: dose 1.25-20 µM
Pseudomonas aeruginosa [11] = assay: Upregulation of pchB expression in Pseudomonas aeruginosa PAO1 at 20 uM incubated for 24 hrs by RNA sequencing analysis; type: functional
Pseudomonas aeruginosa [12] = assay: Upregulation of pvdE expression in Pseudomonas aeruginosa PAO1 at 20 uM incubated for 24 hrs by RNA sequencing analysis; type: functional
Pseudomonas aeruginosa [13] = assay: Upregulation of fpvA expression in Pseudomonas aeruginosa PAO1 at 20 uM incubated for 24 hrs by RNA sequencing analysis; type: functional
Pseudomonas aeruginosa [14] = assay: Downregulation of pqsA expression in Pseudomonas aeruginosa PAO1 at 20 uM incubated for 24 hrs by RNA sequencing analysis; type: functional
Pseudomonas aeruginosa [15] = assay: Downregulation of rhl expression in Pseudomonas aeruginosa PAO1 at 20 uM incubated for 24 hrs by RNA sequencing analysis; type: functional
Pseudomonas aeruginosa [16] = assay: Downregulation of rhlA expression in Pseudomonas aeruginosa PAO1 at 20 uM incubated for 24 hrs by RNA sequencing analysis; type: functional
Pseudomonas aeruginosa [17] = assay: Downregulation of rhlB expression in Pseudomonas aeruginosa PAO1 at 20 uM incubated for 24 hrs by RNA sequencing analysis; type: functional
Pseudomonas aeruginosa [18] = assay: Downregulation of pilB expression in Pseudomonas aeruginosa PAO1 at 20 uM incubated for 24 hrs by RNA sequencing analysis; type: functional
Pseudomonas aeruginosa [19] = assay: Downregulation of pilT expression in Pseudomonas aeruginosa PAO1 at 20 uM incubated for 24 hrs by RNA sequencing analysis; type: functional
Pseudomonas aeruginosa [20] = assay: Downregulation of filA expression in Pseudomonas aeruginosa PAO1 at 20 uM incubated for 24 hrs by RNA sequencing analysis; type: functional
Pseudomonas aeruginosa [21] = assay: Downregulation of mexA expression in Pseudomonas aeruginosa PAO1 at 20 uM incubated for 24 hrs by RNA sequencing analysis; type: functional
Pseudomonas aeruginosa [22] = assay: Downregulation of mexE expression in Pseudomonas aeruginosa PAO1 at 20 uM incubated for 24 hrs by RNA sequencing analysis; type: functional
A549 = assay: Cytotoxicity against human A549 cells assessed as reduction in cell viability upto 50 uM incubated for 24 hrs by MTT assay; type: toxicity, cell-based; conditions: a549, 24 h
[23] = Toxicity in Zebrafish embryo assessed as survival rate of zebrafish larvae at 10 to 200 uM and mesured upto 120 hrs post fertilization; design: species or system Danio rerio; conditions: in vivo, dose 10-200 µM
Pseudomonas aeruginosa [24] = assay: Synergistic antibacterial activity against Pseudomonas aeruginosa PAO1 infected in Balb/c mouse wound infection model assessed as healing degree of wound at 50 uM […],TOP QD for 3 days in presence of Ciprofloxacin; type: functional, organism-based; conditions: time 3.0 day
Pseudomonas aeruginosa [25] = assay: Synergistic antibacterial activity against Pseudomonas aeruginosa PAO1 infected in Balb/c mouse wound infection model assessed as reduction in bacterial survival rate at wounded area at 50 uM,TOP QD for 3 days in presence of Tobramycin by CFU assay; type: functional; conditions: time 3 day
[26] = Toxicity in Balb/c mouse wound infection model infected with Pseudomonas aeruginosa PAO1 assessed as body weight change at 50 uM,TOP for 3 days in Tobramycin; conditions: in vivo, topical_or_ocular, 72 h, time 3 day
[27] = Toxicity in Balb/c mouse wound infection model infected with Pseudomonas aeruginosa PAO1 assessed as morphological changes in heart at 50 uM,TOP for 3 days in Ciprofloxacin by H and E staining based analysis; type: tissue-based; conditions: in vivo, topical_or_ocular, 72 h, time 3 day
[28] = Toxicity in Balb/c mouse wound infection model infected with Pseudomonas aeruginosa PAO1 assessed as morphological changes in liver at 50 uM,TOP for 3 days in Ciprofloxacin by H and E staining based analysis; type: tissue-based; conditions: in vivo, topical_or_ocular, 72 h, time 3 day
[29] = Toxicity in Balb/c mouse wound infection model infected with Pseudomonas aeruginosa PAO1 assessed as morphological changes in spleen at 50 uM,TOP for 3 days in Ciprofloxacin by H and E staining based analysis; type: tissue-based; conditions: in vivo, topical_or_ocular, 72 h, time 3 day
[30] = Toxicity in Balb/c mouse wound infection model infected with Pseudomonas aeruginosa PAO1 assessed as morphological changes in kidney at 50 uM,TOP for 3 days in Ciprofloxacin by H and E staining based analysis; type: tissue-based; conditions: in vivo, topical_or_ocular, 72 h, time 3 day
[31] = Toxicity in Balb/c mouse wound infection model infected with Pseudomonas aeruginosa PAO1 assessed as morphological changes in heart at 50 uM,TOP for 3 days in Tobramycin by H and E staining based analysis; type: tissue-based; conditions: in vivo, topical_or_ocular, 72 h, time 3 day
[32] = Toxicity in Balb/c mouse wound infection model infected with Pseudomonas aeruginosa PAO1 assessed as morphological changes in lung at 50 uM,TOP for 3 days in Tobramycin by H and E staining based analysis; type: tissue-based; conditions: in vivo, topical_or_ocular, 72 h, time 3 day

SMILES: Cc1ccc2oc(=O)cc(OCCCCCCC(=O)NO)c2c1
- MIC (Pseudomonas aeruginosa [1]): > 256 µM
- inhibition (Pseudomonas aeruginosa [2]): Active
- inhibition [3]: inactive
- inhibition [4]: inactive
- inhibition [5]: Dose-Dependent Effect
- inhibition [6]: inactive
- pFe(III) [7]: 20.1
- inhibition (Pseudomonas aeruginosa [8]): Active
- inhibition (Pseudomonas aeruginosa [9]): inactive
- Activity (Pseudomonas aeruginosa [10]): 6.96 µM
- Activity (Pseudomonas aeruginosa [11]): Active
- Activity (Pseudomonas aeruginosa [12]): Active
- Activity (Pseudomonas aeruginosa [13]): Active
- Activity (Pseudomonas aeruginosa [14]): Active
- Activity (Pseudomonas aeruginosa [15]): Active
- Activity (Pseudomonas aeruginosa [16]): Active
- Activity (Pseudomonas aeruginosa [17]): Active
- Activity (Pseudomonas aeruginosa [18]): Active
- Activity (Pseudomonas aeruginosa [19]): Active
- Activity (Pseudomonas aeruginosa [20]): Active
- Activity (Pseudomonas aeruginosa [21]): Active
- Activity (Pseudomonas aeruginosa [22]): Active
- Activity (A549): Non-Toxic
- Activity [23]: Non-Toxic
- Activity (Pseudomonas aeruginosa [24]): Active
- Activity (Pseudomonas aeruginosa [25]): 1.78%
- Activity [26]: Non-Toxic
- Activity [27]: Non-Toxic
- Activity [28]: Non-Toxic
- Activity [29]: Non-Toxic
- Activity [30]: Non-Toxic
- Activity [31]: Non-Toxic
- Activity [32]: Non-Toxic
